Data reported in patent publication US5840696A (priority 1997, dated 1998).

Experiments:
[1] = target: T1, central kappa-opioid receptors (Rattus norvegicus, UniProt P34975); test: renal responses to i.c.v. peptide in rats pre-treated i.c.v. with nor-binaltorphimine; type: in vivo; conditions: peptide 10 μg i.c.v.; nor-binaltorphimine 1 μg i.c.v.
T1 construct: Anesthetized male Sprague-Dawley rats; from tissue; host or cells: central nervous system of conscious male Sprague-Dawley rats (in vivo, lateral cerebral ventricle injection)
T1 sequence (P34975 whole entry): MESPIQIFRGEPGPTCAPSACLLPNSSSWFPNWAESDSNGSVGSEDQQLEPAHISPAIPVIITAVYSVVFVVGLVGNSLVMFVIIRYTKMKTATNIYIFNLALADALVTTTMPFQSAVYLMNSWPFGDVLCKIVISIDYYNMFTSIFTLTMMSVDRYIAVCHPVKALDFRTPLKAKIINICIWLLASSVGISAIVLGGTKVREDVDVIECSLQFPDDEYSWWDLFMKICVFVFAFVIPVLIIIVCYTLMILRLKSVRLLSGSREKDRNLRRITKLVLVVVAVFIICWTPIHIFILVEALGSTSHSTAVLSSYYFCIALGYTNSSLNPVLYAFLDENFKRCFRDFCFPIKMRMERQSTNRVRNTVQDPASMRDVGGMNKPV
Text: Abbreviations are V, urine flow rate and UNa V, urinary sodium excretion.
For comparative purposes, the renal responses produced by central administration of the endogenous opioid peptide, dynorphin A, were also studied i.c.v.
Anesthetized male Sprague-Dawley rats (275-300 g, Sprague-Dawley, Inc., Indianapolis, Ind.) were implanted with chronic arterial and venous cannulas and a bladder catheter in accordance with previously published methods (10, 12). For experiments in which drugs were administered i.c.v., a stainless steel cannula was stereotaxically implanted into the right lateral ventricle of rats under anesthesia at least 5-7 days prior to experimentation (11). On the morning of the study rats were placed in a rat holder which permits forward and backward movement and allows for collection of urine from the bladder catheter. Conscious rats were then infused i.v. with isotonic saline (50 μl/min) for the duration of the experiment. The arterial cannulae was then flushed and attached to a pressure transducer (Statham P23Db) and the urinary bladder catheter led to a collection beaker. After equilibration and stabilization of urine flow rate and urinary sodium excretion (approximately 2-3 hours) the experimental protocol described in each figure legend commenced. […]

conscious rats = test: lower-dose i.v. infusion of nociceptin (50 and 166 nanog/Kg/min) in conscious rats, renal function; type: in vivo, rat
Text: These marked increases in urine flow rate occurred at doses approximately 120 fold lower than previously reported by Kapusta et al. (17). In order to confirm these more recent and complete studies of the present invention, nociceptin was obtained from three commercially available sources, Phoenix Pharmaceutical, Bachem Chemical and Peninsula Laboratories. […] Nociceptin from each of the sources above was studied at a single infusion rate in each group of six rats. […] These increases in urine flow were accompanied by a decrease in the excretion of urinary sodium (UNA V) as reported earlier (17).

[2] = test system: systemic vascular bed of the anesthetized rat; test: systemic vasodepressor response to bolus i.v. nociceptin in the anesthetized rat; type: in vivo
Protocol: N=number of animals. *p<0.05 when compared to corresponding control value.
Male rats (250-300 g) were anesthetized with pentobarbital sodium (30 mg/kg i.p.). Catheters were placed into a femoral artery and femoral vein for measurement of systemic […] blood pressure and administration of drugs, respectively. Cardiac output was calculated by using Columbus 2F thermodilution catheter placed fluoroscopically in the ascending aortic arch assess changes in temperature following a thermal reference injection of saline (0.2 ml) at room temperature into the right atrium via a jugular venous catheter. Changes in systemic arterial pressure were measured using a Gould P23Id pressure transducer and recorded on a Grass Model 7A recorder. Cardiac output was determined using a Columbus Cardiomax thermodilution cardiac output computer.
Values are means +/-SE; N=6. *p,0.05 compared with corresponding control (paired t test).

[3] = test system: conscious and pentobarbital-anesthetized rats; test: influence of pentobarbital anesthesia on renal and vascular effects of nociceptin; type: in vivo, rat
Text: N=number of rats. *≤0.05 significant when compared using ANOVA.
N=number of animals. *≤0.05 when ANOVA used statistical comparison.

pulmonary vascular bed = pulmonary vascular bed of the intact-chest anesthetized rat under elevated pulmonary vasomotor tone; type: in vivo; conditions: intralobar arterial bolus injections
Protocol: Since pulmonary blood flow and left atrial pressure were held constant, the decreases in pulmonary artery pressure directly reflect decreases in pulmonary vascular resistance. N=number of animals.
Male Charles River rats (260-340 go) were anesthetized with an intraperitoneal injection of pentobarbital sodium (30 mg/kg), and allowed to breath air enriched with oxygen through an endotracheal tube inserted by tracheotomy. The anesthetized animals were strapped in a supine position to a fluoroscopic table, and catheters were inserted in femoral blood vessels. A specially designed triple lumen balloon perfusion catheter was constructed (Nu-Med, Hopkinton, N.Y.). This catheter is 145 mm in length, […]. and with specially curved tip to facilitate passage through the right heart and main pulmonary artery into the artery supplying the right lower lung lobe. At the distal tip of the catheter is a pressure port through which a 0.25 mm soft tip coronary artery angioplasty guide wire is inserted. […] Mean pressure in the right lower lobe artery and the aorta were continuously recorded. […] Since this catheter perfuses approximately one-sixth of the lung, as determined by measuring lung weight, this perfusion rate approximate physiologic flow for that lung area, i.e. at least 15-20% of the 75-85 ml/min normal total pulmonary blood flow of the rat. […]

[4] = test system: constitutive nitric oxide synthase (cNOS); test: influence of L-NAME on urine flow rate responses in conscious rats; conditions: L-NAME 30 mg/Kg i.v., 45 min before infusion
[5] = i.v. infusion 50 and 166 nanog/Kg/min
[6] = 0.3 ug, i.v. bolus, mean +/- SE, N=6
[7] = 1.0 ug, i.v. bolus, mean +/- SE, N=6
[8] = 3.0 ug, i.v. bolus, mean +/- SE, N=6

CC(C)C[C@H](NC(=O)[C@H](CCCCN)NC(=O)[C@H](CCCN=C(N)N)NC(=O)[C@H](C)NC(=O)[C@H](CO)NC(=O)[C@H](CCCCN)NC(=O)[C@H](CCCN=C(N)N)NC(=O)[C@H](C)NC(=O)CNC(=O)[C@@H](NC(=O)[C@H](Cc1ccccc1)NC(=O)CNC(=O)CNC(=O)[C@@H](N)Cc1ccccc1)[C@@H](C)O)C(=O)N[C@@H](C)C(=O)N[C@@H](CC(N)=O)C(=O)N[C@@H](CCC(N)=O)C(=O)O [nociceptin]
effect of i.c.v. nor-binaltorphimine pretreatment on the diuresis and antinatriuresis produced by the peptide [1]: did not alter | doses producing increases in urine flow rate, lower than in preliminary studies / Kapusta et al. (17) (conscious rats; i.v. infusion): approximately 120 fold | baseline systemic arterial pressure and heart rate (conscious rats; [5]): did not alter baseline systemic arterial pressure and heart rate | duration of renal responses (conscious rats; [5]): approximately 90 min | excretion of urinary sodium (UNA V) (conscious rats; [5]): decrease | time of peak renal effect after start of infusion (conscious rats; [5]): 30 min | urine flow rate (V) (conscious rats; i.v. infusion 50 and 166 nanog/Kg/min, conscious rats): dose-dependent increase | Cardiac Output [2, 6]: 111.3 ± 49.6 mL/min | Systemic Arterial Pressure [2, 6]: 150.0 +/- 15.5 mmHg | Systemic Vascular Resistance [2, 6]: 1.1 +/- 0.1 mmHg/ml/min | Cardiac Output [2, 7]: 102.8 ± 4.5 mL/min | Systemic Arterial Pressure [2, 7]: 141.0 +/- 17.8 mmHg | Systemic Vascular Resistance [2, 7]: 1.1 +/- 0.2 mmHg/ml/min | Cardiac Output [2, 8]: 96.8 ± 34.4 mL/min | Systemic Arterial Pressure [2, 8]: 109.6 +/- 19.8 mmHg | Systemic Vascular Resistance [2, 8]: 0.8 +/- 0.1 mmHg/ml/min | systemic vasodepressor response after L-NAME or L-NIO ([2]; 45 min after L-NAME or L-NIO): significantly inhibited | Cardiac Output ([2]; bolus i.v. doses): did not significantly alter cardiac output | systemic vasodepressor response after glybenclamide and meclofenamate ([2]; bolus i.v. injections, anesthetized rats): not inhibited | Systemic Arterial Pressure ([2]; bolus i.v. injections, pentobarbital-anesthetized rats): decreased systemic arterial pressure in a dose-dependant manner | systemic vasodepressor activity, anesthetized versus conscious rats ([3]; bolus i.v. injection): greater systemic vasodepressor activity | ability to increase urinary flow rate (V) under anesthesia ([3]; rats anesthetized with sodium pentobarbital, i.v. infusion): inhibited | pulmonary vasodilator response after L-NAME and L-NIO (pulmonary vascular bed): inhibit | effect on the pulmonary vascular bed (pulmonary vascular bed; tone elevated with U46619): dilates the pulmonary vascular bed | increase in urine flow rate (V) in response to i.v. infusion after L-NAME [4]: significantly inhibited
